{
  "source": "paper PMC7093421",
  "about": "“Perfluorooctane sulfonate (PFOS) and perfluorooctanoate (PFOA) acutely affect human α1β2γ2L GABAA receptor and spontaneous neuronal network function in vitro” (Scientific Reports, 2020)",
  "target": "T1, human α1β2γ2L GABAA receptor (Homo sapiens, UniProt P14867+P18507+P47870)",
  "T1 construct": "gene GABRA1; α1β2γ2L receptor expressed in Xenopus laevis oocytes; with GABRB2 (β2) and GABRG2 (γ2L) subunits",
  "T1 sequence (P14867 28-456)": "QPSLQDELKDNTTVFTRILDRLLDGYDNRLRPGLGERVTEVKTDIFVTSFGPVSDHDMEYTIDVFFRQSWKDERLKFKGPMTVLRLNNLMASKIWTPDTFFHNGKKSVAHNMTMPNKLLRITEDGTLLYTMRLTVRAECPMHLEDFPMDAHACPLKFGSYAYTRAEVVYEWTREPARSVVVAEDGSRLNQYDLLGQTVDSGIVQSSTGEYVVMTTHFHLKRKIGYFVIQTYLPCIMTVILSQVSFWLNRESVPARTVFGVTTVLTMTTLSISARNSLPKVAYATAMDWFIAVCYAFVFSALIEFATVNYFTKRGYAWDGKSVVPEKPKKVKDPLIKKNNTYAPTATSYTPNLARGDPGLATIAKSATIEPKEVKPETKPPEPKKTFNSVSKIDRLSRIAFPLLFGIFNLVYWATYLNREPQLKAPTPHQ",
  "T1 sequence (P47870 26-512)": "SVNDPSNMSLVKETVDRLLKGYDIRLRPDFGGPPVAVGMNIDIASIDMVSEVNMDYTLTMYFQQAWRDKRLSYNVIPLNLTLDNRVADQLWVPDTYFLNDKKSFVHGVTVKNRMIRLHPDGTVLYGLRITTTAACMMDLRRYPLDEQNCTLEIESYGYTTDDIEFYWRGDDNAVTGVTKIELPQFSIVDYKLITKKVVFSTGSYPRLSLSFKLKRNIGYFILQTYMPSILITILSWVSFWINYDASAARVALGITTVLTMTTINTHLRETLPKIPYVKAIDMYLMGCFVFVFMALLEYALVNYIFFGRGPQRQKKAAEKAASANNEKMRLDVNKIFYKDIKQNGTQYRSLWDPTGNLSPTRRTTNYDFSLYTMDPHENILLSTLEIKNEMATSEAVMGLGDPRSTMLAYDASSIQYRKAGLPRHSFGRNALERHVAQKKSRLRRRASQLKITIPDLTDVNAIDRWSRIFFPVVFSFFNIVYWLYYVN",
  "T1 sequence (P18507 40-475)": "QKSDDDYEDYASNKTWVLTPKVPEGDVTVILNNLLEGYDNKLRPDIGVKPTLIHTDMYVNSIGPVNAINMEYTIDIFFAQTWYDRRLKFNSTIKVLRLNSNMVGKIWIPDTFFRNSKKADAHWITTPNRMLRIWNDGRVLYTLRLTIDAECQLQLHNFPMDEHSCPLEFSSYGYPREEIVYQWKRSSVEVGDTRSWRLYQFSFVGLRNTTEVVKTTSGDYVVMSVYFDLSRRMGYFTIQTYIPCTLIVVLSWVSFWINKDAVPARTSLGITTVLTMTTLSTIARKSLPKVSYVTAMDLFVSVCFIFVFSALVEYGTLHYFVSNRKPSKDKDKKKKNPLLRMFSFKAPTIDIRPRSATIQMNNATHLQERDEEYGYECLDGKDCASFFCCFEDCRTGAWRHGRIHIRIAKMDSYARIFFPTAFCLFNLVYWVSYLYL",
  "assay": "two-electrode voltage clamp in Xenopus oocytes, inhibition of GABA-evoked current ([…] GABA)",
  "format": "cell-based",
  "data": [
    {"smiles": "O=C(O)C(F)(F)C(F)(F)C(F)(F)C(F)(F)C(F)(F)C(F)(F)C(F)(F)F", "note": "[PFOA]", "values": [
      {"measurement": "IC50", "value": 6.7, "unit": "µM"}
    ]},
    {"smiles": "O=S(=O)(O)C(F)(F)C(F)(F)C(F)(F)C(F)(F)C(F)(F)C(F)(F)C(F)(F)C(F)(F)F", "note": "[PFOS]", "values": [
      {"measurement": "IC50", "value": 0.18, "unit": "µM"}
    ]}
  ]
}
